In patent publication US10620222B2, “Electrified compositions for determining the risk of developing adolescent idiopathic scoliosis through the use of GI protein receptor” (CHU Sainte-Justine, priority 2008, dated 2020):
Several values for one entry are separate records, joined by “and”; a condition that tells them apart may be missing. Equal entries are not always repeated.

System: receptors coupled to Gi proteins expressed on osteoblasts
Test: Cellular Dielectric Spectroscopy (CDS, CELLKEY) response to Gi-coupled receptor ligands in osteoblasts from control and AIS subjects
Assay type: cell-based, human
Design: % of control / % of control signal, Group 1, min diff. / % of control signal, Group 2, min diff. / % of control signal, Group 3, min diff.: concentration or dose not given beside the values; dZiec value / Absolute dZiec, control value of max diff. (maximal control value): unit not given here
Conditions: for dZiec value / Absolute dZiec, control value of max diff. (maximal control value) / Absolute dZiec, control value of min diff. (minimal control value) / Absolute dZiec, Group 1, max diff. (group value) / Absolute dZiec, Group 1, min diff. (group value) / Absolute dZiec, Group 2, max diff. (group value) / Absolute dZiec, Group 2, min diff. (group value) / Absolute dZiec, Group 3, max diff. (group value) / Absolute dZiec, Group 3, min diff. (group value): 300 μM ligand; for dZiec value: n1, n2 of Exper. 1-3; for Absolute dZiec, control value of max diff. (maximal control value) / Absolute dZiec, control value of min diff. (minimal control value): osteoblasts of control subjects; for Absolute dZiec, control value of max diff. (maximal control value) / Absolute dZiec, control value of min diff. (minimal control value) / Absolute dZiec, Group 1, max diff. (group value) / Absolute dZiec, Group 1, min diff. (group value) / Absolute dZiec, Group 2, max diff. (group value) / Absolute dZiec, Group 2, min diff. (group value) / Absolute dZiec, Group 3, max diff. (group value) / Absolute dZiec, Group 3, min diff. (group value): from FIGS. 11A-11F; for Absolute dZiec, Group 1, max diff. (group value) / Absolute dZiec, Group 1, min diff. (group value) / % of control signal, Group 1, max diff. / % of control signal, Group 1, min diff. / Absolute dZiec, Group 2, max diff. (group value) / Absolute dZiec, Group 2, min diff. (group value) / % of control signal, Group 2, max diff. / % of control signal, Group 2, min diff. / Absolute dZiec, Group 3, max diff. (group value) / Absolute dZiec, Group 3, min diff. (group value) / % of control signal, Group 3, max diff. / % of control signal, Group 3, min diff.: osteoblasts; for Absolute dZiec, Group 1, max diff. (group value): AIS Group 1 value of max diff.; for Absolute dZiec, Group 1, min diff. (group value): AIS Group 1 value of min diff.; for % of control signal, Group 1, max diff.: AIS Group 1 vs maximal control value; for % of control signal, Group 1, min diff.: AIS Group 1 vs minimal control value; for Absolute dZiec, Group 2, max diff. (group value): AIS Group 2 value of max diff.; for Absolute dZiec, Group 2, min diff. (group value): AIS Group 2 value of min diff.; for % of control signal, Group 2, max diff.: AIS Group 2 vs maximal control value; for % of control signal, Group 2, min diff.: AIS Group 2 vs minimal control value; for Absolute dZiec, Group 3, max diff. (group value): AIS Group 3 value of max diff.; for Absolute dZiec, Group 3, min diff. (group value): AIS Group 3 value of min diff.; for % of control signal, Group 3, max diff.: AIS Group 3 vs maximal control value; for % of control signal, Group 3, min diff.: AIS Group 3 vs minimal control value
From the text: Bone specimens were obtained intraoperatively from vertebras (varying from T3 to L4 according to the surgical procedure performed), while with trauma cases used as non-scoliotic controls bone specimens were obtained from other anatomical sites (tibia or femur, and in one case from an iliac crest biopsy). Osteoblasts and myoblasts isolated as previously described (Moreau A, Wang D S, Forget S et al. Melatonin Signaling Dysfunction in Adolescent Idiopathic Scoliosis. Spine 2004; 29:1772-81; Azeddine et al., 2007 Molecular determinants of melatonin signaling dysfunction in adolescent idiopathic scoliosis. Clin Orthop Relat Res. 2007, 462:45-52), were cultured at 37° C./5% CO2 in MEM supplemented with 10% fetal bovine serum (FBS) and 100 μg/mL streptomycin. Prior to the experiment, cells were seeded into the CELLKEY™ label-free cellular analysis system standard 96-well plates at a density of 5×10^4/well and grown for 24 h and incubated in standard conditions (37° C./5% CO2). In some plates, Pertussis toxin (100 ng/mL, Sigma, Oakville, ON, Canada) treatment was performed 16 h before the CDS assay. Following overnight incubation, plates were placed onto the CELLKEY™ label-free cellular analysis system and growth medium was exchanged to assay buffer (Hanks, Balanced Salt Solution containing 20 mM HEPES and 0.1% BSA) before starting the experiment. Cells were then allowed to equilibrate at room temperature for 30 min. Pre-addition measurements were made for 5 min to obtain a baseline reading. […] The quick update rate (2 s.) of the CELLKEY™ label-free cellular analysis system allows detection of these immediate changes in impedance. Impedance measurements were collected for 10 min to 15 min at 28° C. after ligand addition to monitor cellular responses to ligand interaction and to generate CELLKEY™ label-free cellular analysis system response profiles that are characteristic of the signaling mechanisms used.
The response induced by the various ligands to their receptors was measured by cellular dielectric spectroscopy (CDS) using the CELLKEY™ label-free cellular analysis technology. (MDS Sciex, San Francisco, Calif., USA). The CELLKEY™ label-free cellular analysis system integrates a proprietary impedance measurement system, custom 96-well microliter plate, onboard 96-well fluidics, and environment control and custom acquisition and analysis software in a full solution package (MDS Sciex) that is compatible with commercially available robotic platforms. Small voltage at 24 frequencies, from 1 KHz to 10 MHz, is applied to a monolayer of cells settled in a 96-well microplate containing electrodes at the bottom, and the resultant current is measured at an update rate of 2 s. […] Onboard fluid additions and exchanges are handled by 96-well head fluid delivery device with a range of 5-500 μL. In addition to the cell plate location, the CELLKEY™ label-free cellular analysis system includes two additional stations for 96- or 384-well compound plates. All aspects of assay set up, execution, and data acquisition and analysis are controlled by CELLKEY™ label-free cellular analysis software.
The minimal (min) and maximal (max) values represent the mean of three independent measurements performed in duplicate (six values in total) for a given patient/control subject. […] Duplicates (n1 and n2) of three independent experiments are presented.

[1] = osteoblasts of AIS#1020 (Group 3) relative to CTR#60
[2] = osteoblasts of AIS#1020 (Group 3)
[3] = osteoblasts of AIS#1198 (Group 3 in Table II) relative to CTR#69
[4] = osteoblasts of AIS#1198 (Group 3 in Table II)
[5] = osteoblasts of AIS#1385 (Group 2) relative to CTR#69
[6] = osteoblasts of AIS#1385 (Group 2)
[7] = osteoblasts of AIS#1468 (Group 3) relative to CTR#61
[8] = osteoblasts of AIS#1468 (Group 3)
[9] = osteoblasts of AIS#1474 (Group 1) relative to CTR#60
[10] = osteoblasts of AIS#1474 (Group 1)
[11] = osteoblasts of AIS#1488 (Group 1) relative to CTR#69
[12] = osteoblasts of AIS#1488 (Group 1)
[13] = osteoblasts of AIS#1513 (Group 3) relative to CTR#61
[14] = osteoblasts of AIS#1513 (Group 3)
[15] = osteoblasts of AIS#1550 (Group 2) relative to CTR#60
[16] = osteoblasts of AIS#1550 (Group 2)

## CNC(=O)[C@H]1O[C@@H](n2cnc3c(NCc4cccc(I)c4)ncnc32)[C@H](O)[C@@H]1O [IB-meca, 1-Deoxy-1-[6-[[(3-iodophenyl)methyl]amino]-9H-purin-9-yl]-N-methyl-β-D-ribofuranuronamide]
[1]
  % of control: 50.1% and 47.6% and 50.6% and 47.2% and 47.5% and 50.0%
[2]
  dZiec value: 74.19 and 76.19 and 87.32 and 85.32 and 76.76 and 84.76
[3]
  % of control: 41.1% and 45.4% and 47.8% and 50.0% and 45.1% and 47.6%
[4]
  dZiec value: 63.58 and 75.58 and 85.63 and 93.63 and 75.61 and 83.61
[5]
  % of control: 47.6% and 45.3% and 47.5% and 44.4% and 44.9% and 47.4%
[6]
  dZiec value: 73.49 and 75.49 and 85.15 and 83.15 and 75.32 and 83.32
[7]
  % of control: 77.6% and 79.5% and 78.4% and 78.2% and 79.4%
[8]
  dZiec value: 98.77 and 110.77 and 121.90 and 129.90 and 111.34 and 119.34
[9]
  % of control: 21.1% and 18.9% and 21.2% and 20.8% and 18.5% and 22.4%
[10]
  dZiec value: 31.25 and 30.25 and 36.61 and 37.61 and 29.93 and 37.93
[11]
  % of control: 25.5% and 24.8% and 26.8% and 24.5% and 23.6% and 27.1%
[12]
  dZiec value: 39.34 and 41.34 and 47.91 and 45.91 and 39.63 and 47.63
[13]
  % of control: 61.6% and 64.9% and 67.0% and 68.6% and 64.8% and 66.7%
[14]
  dZiec value: 78.36 and 90.36 and 104.12 and 112.12 and 92.24 and 100.24
[15]
  % of control: 44.2% and 42.1% and 47.0% and 43.8% and 42.9% and 45.6%
[16]
  dZiec value: 65.47 and 67.47 and 81.23 and 79.23 and 69.35 and 77.35
Osteoblasts of control CTR#60
  dZiec value: 148.22/— and 160.22/— and 172.73/— and 180.73/— and 161.48/— and 169.48/—
Osteoblasts of control CTR#61
  dZiec value: 127.27/— and 139.27/— and 155.44/— and 163.44/— and 142.36/— and 150.36/—
Osteoblasts of control CTR#69
  dZiec value: 154.52/— and 166.52/— and 179.10/— and 187.10/— and 167.81/— and 175.81/—
  Absolute dZiec, control value of max diff. (maximal control value): 172
  Absolute dZiec, control value of min diff. (minimal control value): 132
  Absolute dZiec, Group 1, max diff. (group value): 20
  Absolute dZiec, Group 1, min diff. (group value): 43
  % of control signal, Group 1, max diff.: 12%
  % of control signal, Group 1, min diff.: 33%
  Absolute dZiec, Group 2, max diff. (group value): 73
  Absolute dZiec, Group 2, min diff. (group value): 80
  % of control signal, Group 2, max diff.: 42%
  % of control signal, Group 2, min diff.: 61%
  Absolute dZiec, Group 3, max diff. (group value): 98
  Absolute dZiec, Group 3, min diff. (group value): 115
  % of control signal, Group 3, max diff.: 55%
  % of control signal, Group 3, min diff.: 87%

## O=C(NC1CCCCC1)c1cn(CCN2CCOCC2)c2cc(Cl)ccc2c1=O [CB65, N-Cyclohexyl-7-chloro-1-[2-(4-morpholinyl)ethyl]quinolin-4(1H)-one-3-carboxamide]
[1]
  % of control: 43.1% and 47.5% and 45.6% and 43.5% and 46.2%
[2]
  dZiec value: 61.81 and 73.81 and 74.95 and 82.95 and 69.38 and 77.38
[3]
  % of control: 51.5% and 55.2% and 57.8% and 59.7% and 55.1% and 57.3%
[4]
  dZiec value: 72.90 and 84.90 and 94.57 and 102.57 and 84.73 and 92.73
[5]
  % of control: 46.7% and 50.9% and 51.8% and 54.1% and 49.8% and 52.3%
[6]
  dZiec value: 66.15 and 78.15 and 84.86 and 92.86 and 76.50 and 84.50
[7]
  % of control: 57.0% and 60.3% and 64.0% and 65.6% and 61.0% and 62.9%
[8]
  dZiec value: 82.16 and 94.16 and 107.91 and 115.91 and 96.04 and 104.04
[9]
  % of control: 25.3% and 24.7% and 26.9% and 24.6% and 23.5% and 27.2%
[10]
  dZiec value: 36.30 and 38.30 and 46.79 and 44.79 and 37.55 and 45.55
[11]
  % of control: 29.2% and 28.2% and 33.2% and 30.5% and 28.5% and 32.1%
[12]
  dZiec value: 41.30 and 43.30 and 54.43 and 52.43 and 43.87 and 51.87
[13]
  % of control: 74.8% and 76.7% and 76.6% and 77.6% and 75.9% and 77.1%
[14]
  dZiec value: 107.73 and 119.73 and 129.10 and 137.10 and 119.41 and 127.41
Osteoblasts of AIS#1549 (Group 1) relative to CTR#61
  % of control: 25.3% and 18.2% and 19.1% and 22.8% and 19.3% and 23.2%
Osteoblasts of AIS#1549 (Group 1)
  dZiec value: 36.48 and 28.48 and 32.23 and 40.23 and 30.36 and 38.36
[15]
  % of control: 38.5% and 36.8% and 38.3% and 35.5% and 35.6% and 38.7%
[16]
  dZiec value: 55.13 and 57.13 and 66.49 and 64.49 and 56.81 and 64.81
Osteoblasts of control CTR#60
  dZiec value: 143.28/— and 155.28/— and 173.77/— and 181.77/— and 159.53/— and 167.53/—
Osteoblasts of control CTR#61
  dZiec value: 144.08/— and 156.08/— and 168.59/— and 176.59/— and 157.34/— and 165.34/—
Osteoblasts of control CTR#69
  dZiec value: 141.68/— and 153.68/— and 163.73/— and 171.73/— and 153.70/— and 161.70/—
  Absolute dZiec, control value of max diff. (maximal control value): 169
  Absolute dZiec, control value of min diff. (minimal control value): 138
  Absolute dZiec, Group 1, max diff. (group value): 34
  Absolute dZiec, Group 1, min diff. (group value): 47
  % of control signal, Group 1, max diff.: 20%
  % of control signal, Group 1, min diff.: 34%
  Absolute dZiec, Group 2, max diff. (group value): 60
  Absolute dZiec, Group 2, min diff. (group value): 88
  % of control signal, Group 2, max diff.: 36%
  % of control signal, Group 2, min diff.: 64%
  Absolute dZiec, Group 3, max diff. (group value): 100
  Absolute dZiec, Group 3, min diff. (group value): 123
  % of control signal, Group 3, max diff.: 55%
  % of control signal, Group 3, min diff.: 89%
